Data reported in patent publication US5276053A, “Polycyclic amines useful as cerebrovascular agents” (Warner-Lambert Company, priority 1992, dated 1994).
Counter-ions that a name gives are not always drawn.

Assays:
[1] = system: cultured rat cortical neurons; test: Inhibition of glutamate stimulated [^45 Ca] influx (GCI) into cultured rat cortical neurons; assay type: cell-based; details: Cortical neurone, read-out: CGCI IC50
Excerpt: (§1) Since the influx of calcium is thought to be central to the damage resulting from ischemia, the ability of the compounds of the instant invention to inhibit the hypoxia and glutamate-stimulated influx of calcium into cultured rat cortical neurons (an assay representative of cerebrovascular disorders resulting from stroke or brain injury) is shown in Table 2 and Table 3, respectively. The methodology for determining the ability of the compounds of the instant invention to inhibit the glutamate-stimulated calcium influx (GCI) into cultured rat cortical neurons is to be found in: A. W. Probert and F. W. Marcoux, Soc. Neurosci. Abstr. 13, Part II, 754 (1987). Using a similar culture system, the ability of the compounds of the instant invention to inhibit the hypoxia-stimulated influx of calcium (HCI) was determined by incubating cultured cells in an atmosphere of nitrogen (95%) and CO2 (5%) at 37° C. for a period of four hours. Calcium influx was determined by subtraction of the stimulated influx in the presence of tetrodotoxin (3 μM) and magnesium (10 mM) from that found in the absence (control) and in the presence of the test substance.

[2] = target: phencyclidine (PCP) receptors; test: Inhibition of [^3 H]TCP receptor binding (RBS1)
Method: The ability of the compounds of the instant invention to interact with phencyclidine (PCP) receptors which represents a noncompetitive NMDA antagonist binding site, is shown in Table 1. Tritiated 1[1-(2-thienyl)cyclohexyl]piperidine (TCP) binding, designated RBS1, was carried out essentially as described in J. Pharmacol. Exp. Ther., 238, 739-749 (1986).

[3] = system: cultured rat cortical neurons; test: Inhibition of hypoxia stimulated [^45 Ca] influx (HCI) into cultured rat cortical neurons; assay type: cell-based; details: Cortical neurone, 4 h, hypoxia stimulated [^45 Ca] influx (CHCI), Table 3, nitrogen (95%) and CO2 (5%), 37° C., four hours, read-out: CGCI IC50
Excerpt: as §1

Row | Compound | IC50 [1] | IC50 [2] | IC50 [3]
1 | N[C@]12CCCC[C@H]1CCc1ccccc12 (relative stereo) [Example 2, Cis-1,3,4,9-10,10a-hexahydro-4a(2H)-phenanthrenamine monohydrochloride] | 100 nM | 20 nM | 
2 | CN[C@]12CCCC[C@H]1CCc1ccccc12 (relative stereo) [Example 4, Cis-1,3,4,9,10,10a-hexahydro-N-methyl-4a(2H)-phenanthrenamine monohydrochloride] | 410 nM | 15 nM | 180 nM
3 | C=CCN[C@]12CCCC[C@H]1CCc1ccccc12 (relative stereo) [Example 5, N-Allyl-cis-1,3,4,9,10,10a-hexahydro-4a(2H)-phenanthrenamine monohydrochloride] | 902 nM | 100 nM | 660 nM
4 | CNC12CCCCC1Cc1ccccc12 (stereo not drawn) [* (X = CH2)] |  | 16 nM | 
5 | CNC12CCCCC1Sc1ccccc12 (stereo not drawn) [* (X = S), reference compound] | 210 nM |  | 180 nM
6 | c1csc(C2(N3CCCCC3)CCCCC2)c1 [TCP, 1[1-(2-thienyl)cyclohexyl]piperidine] |  | 9 nM | 
